Patent US6756362B2, “Methods and compositions based on inhibition of cell invasion and fibrosis by anionic polymers” (priority 1991, dated 2004)

Columns and labels:
[1] = test system: rat meningeal fibroblasts (RMF); experiment: Stripe assay, RMF; format: cell-based; set-up: key: Bands that were completely inhibitory to cell adhesion, migration and/or invasion were evaluated as (−); those allowing limited cell adhesion, migration and/or invasion (+/−); those permissive to cell adhesion, migration and/or invasion as (+); conditions: for DS-PG Effect on Adhesion, Migration and Invasion: 2 days following plating
Method: Primary Cell Cultures. Primary cultures of rat meningeal fibroblasts (RMF) were obtained from P-3 rat pups. The tissue was removed from the animals and transferred to Leibovitz's L-15 with L-glutamine medium. The tissue was then cut into small pieces with a scalpel blade, enzymatically dissociated with 0.25% trypsin in Ca^2+/Mg^2+ free Hank's balanced salt solution (CMF-HBSS, Gibco Laboratories) for 20 minutes at 37° C., and mechanically triturated. The cells were rinsed with DMEM plus 10% FCS, concentrated by centrifugation and subsequently diluted in DMEM with 10% FCS for plating at 5.0×10^6 cells per 75 cm^2 flask. Adult rat sciatic nerve fibroblasts (RSF) were obtained by explantation of 1 mm sections of adult rat sciatic nerve.
(§1) The stripe assay was performed essentially as described by Snow et al. (1990, Exp. Neural. 309:111-130). Tissue culture Petri dishes (Falcon, 60 mm) were precoated with 0.5 ml of a mixture of 5 cm^2 section nitrocellulose (Schleicher & Schuell, Type BA 85) dissolved in 6 ml methanol, and air dried in a laminar flow hood. Cellulose filter paper (Whatman #1) was cut into 12×0.35 mm strips with a McIlwain tissue chopper (The Mickle Laboratory Engineering Co., LTD). A strip of filter paper was soaked in 20 μl of a solution of DS-PG or KS/CS-PG and LN at given concentration, blotted onto the nitrocellulose-coated dish for 30 sec. and removed. The test solution was allowed to air dry. This process was repeated several times creating clearly defined, equally spaced parallel bands of uniform width on the plates. A thin layer of 0.1 or 1 mg/ml LN was then spread evenly across the bands with a bent glass Pasteur pipet, and covered with culture medium (FIG. 1).
(§2) Plates were seeded with cell suspensions of 2.0×10^5 cells/ml or 4-10 DRG explants. The cultures were assessed for degree of adhesion, migration and/or invasion of the DS-PG or KS/CS-PG bands over a period of up to 7 days using a Leitz Fluovert microscope.
(§3) Bands that were completely inhibitory to cell adhesion, migration and/or invasion were evaluated as (−), those allowing limited cell adhesion, migration and/or invasion (+/−), and those permissive to cell adhesion, migration and/or invasion as (+). cell adhesion was defined as the initial interaction between the cell surface and the substratum which results in cell attachment and spreading. Cell migration was operationally defined as cell movement within the same substratum, and cell invasion was operationally defined as cell movement from one type of substratum to another type of substratum.

rat astrocytes (RAST) = experiment: Stripe assay, RAST; format: cell-based; set-up: key: Bands that were completely inhibitory to cell adhesion, migration and/or invasion were evaluated as (−); those allowing limited cell adhesion, migration and/or invasion (+/−); those permissive to cell adhesion, migration and/or invasion as (+); conditions: for DS-PG Effect on Adhesion, Migration and Invasion: 2 days following plating
Method: Rat astrocytes (RAST) cultures were prepared from P-1-3 rat brain cortices. The cortices were stripped of connective tissue and blood vessels, cut into small pieces and dissociated in 0.5% collagenase (Gibco Laboratories) for 20 min at 37° C., followed by further dissociation in 0.25% trypsin for 15 min, and 0.04 mg/ml DNAse (Sigma) and 0.52 mg/ml soy bean trypsin inhibitor for 5 min at 37° C. The cells were subsequently mechanically dissociated by trituration with a Pastuer pipette and plated at 1.5×10^7 cells in a poly-L-lysine (PLL, Sigma) coated 75 cm^2 flask. The flask was shaken 4 hrs following plating to remove less adherent non-astrocytic oligodendrocytes and neurons.
as §1, §2, §3

rat C6 glioma = experiment: Stripe assay, C6; format: cell-based; set-up: key to DS-PG Effect on Adhesion, Migration and Invasion / Effect of KS/CS-PG on Cell Migration: Bands that were completely inhibitory to cell adhesion, migration and/or invasion were evaluated as (−); those allowing limited cell adhesion, migration and/or invasion (+/−); those permissive to cell adhesion, migration and/or invasion as (+); conditions: for DS-PG Effect on Adhesion, Migration and Invasion / Effect of KS/CS-PG on Cell Migration: C6; for DS-PG Effect on Adhesion, Migration and Invasion: 2 days following plating
Method: Cell lines. Murine 3T3 fibroblast (NIH), rat C6 glioma (Paganetti et al., 1988, J. Cell Biol. 107:2281) and MCG-28 young immortalized mouse astrocyte (a murine neonatal astrocyte line immortalized with SV-40) were grown in medium composed of Dulbecco's modified Eagle medium (DMEM), 10% fetal calf serum (Gibco Laboratories), and penicillin G/streptomycin (100 units/ml, 100 μg/ml respectively, Gibco Laboratories). For the stripe assay, confluent plates were disaggregated with 0.05% trypsin, 0.53 mM EDTA (Gibco Laboratories) and seeded at 200,000 cells/ml (3 ml/plate). For the cell adhesion assays, confluent cultures were disaggregated with 0.03% EDTA and plated in a 96-well microtiter plate at 20,000-100,000 cells per well. PC12 cells, a pheochromocytoma cell line (Green L. A. & Tischler A. S., 1976, Proc. Natl. Acad. Sci. U.S.A. 73:2424), were grown in medium containing Roswell Park Memorial Institute (RPMI) medium 1640 (Gibco Laboratories), 10% horse serum, 5% fetal calf serum (FCS), and penicillin G/streptomycin (100 units/ml, 100 μg/ml respectively, Gibco Laboratories). The cells were disaggregated with 0.03% EDTA and plated in a 96-well microtiter plate at 3,000 cells per well.
as §1, §2, §3

[2] = test system: epidural fibrosis at laminectomy site, Lewis inbred rats; experiment: Epidural fibrosis after lumbar laminectomy in rats, gross evaluation; format: in vivo, rat; set-up: scale not given here; conditions: Table 4; 20 mg/ml; 4 weeks post-implantation
[3] = 0.1 mg/ml DS-PG + 20 μg/ml LN stripes
[4] = 0.2 mg/ml DS-PG + 20 μg/ml LN stripes
[5] = 0.4 mg/ml DS-PG + 20 μg/ml LN stripes
[6] = 0.8 mg/ml DS-PG + 20 μg/ml LN stripes
[7] = 0.12 mg/ml KS/CS-PG + LN stripes
[8] = 0.25 mg/ml KS/CS-PG + LN stripes
[9] = 0.5 mg/ml KS/CS-PG + LN stripes
[10] = 1.0 mg/ml KS/CS-PG + LN stripes
[11] = 2.7 mg/ml KS/CS-PG + LN stripes

Dermatan sulfate proteoglycan [DS-PG]
+: DS-PG Effect on Adhesion, Migration and Invasion [1, 3] | DS-PG Effect on Adhesion, Migration and Invasion (rat astrocytes (RAST); [3]) | DS-PG Effect on Adhesion, Migration and Invasion (rat C6 glioma; [3])
≥ 4 days: stability of clear stripes (inhibition of C6 cells) (rat C6 glioma; 0.8 mg/ml DS-PG, followed up to 6 days)
+/−: DS-PG Effect on Adhesion, Migration and Invasion [1, 4] | DS-PG Effect on Adhesion, Migration and Invasion (rat astrocytes (RAST); [4]) | DS-PG Effect on Adhesion, Migration and Invasion (rat astrocytes (RAST); [5]) | DS-PG Effect on Adhesion, Migration and Invasion (rat C6 glioma; [4])
−: DS-PG Effect on Adhesion, Migration and Invasion [1, 5] | DS-PG Effect on Adhesion, Migration and Invasion [1, 6] | DS-PG Effect on Adhesion, Migration and Invasion (rat astrocytes (RAST); [6]) | DS-PG Effect on Adhesion, Migration and Invasion (rat C6 glioma; [5]) | DS-PG Effect on Adhesion, Migration and Invasion (rat C6 glioma; [6])

dextran [reference compound]
10.0 ± 1.2: TOTAL SCORE 4 WEEKS [2]

dextran sulfate
1.8 ± 0.9: TOTAL SCORE 4 WEEKS [2]

keratan sulfate/chrondroitin sulfate-proteoglycans [KS/CS-PG]
+/−: Effect of KS/CS-PG on Cell Migration [1, 8] | Effect of KS/CS-PG on Cell Migration [1, 9] | Effect of KS/CS-PG on Cell Migration [1, 10] | Effect of KS/CS-PG on Cell Migration (rat astrocytes (RAST); [8]) | Effect of KS/CS-PG on Cell Migration (rat astrocytes (RAST); [9]) | Effect of KS/CS-PG on Cell Migration (rat astrocytes (RAST); [10]) | Effect of KS/CS-PG on Cell Migration (rat C6 glioma; [11])
+: Effect of KS/CS-PG on Cell Migration [1, 7] | Effect of KS/CS-PG on Cell Migration (rat astrocytes (RAST); [7]) | Effect of KS/CS-PG on Cell Migration (rat C6 glioma; [8]) | Effect of KS/CS-PG on Cell Migration (rat C6 glioma; [9]) | Effect of KS/CS-PG on Cell Migration (rat C6 glioma; [10])
−: Effect of KS/CS-PG on Cell Migration [1, 11] | Effect of KS/CS-PG on Cell Migration (rat astrocytes (RAST); [11])
≤ 48 h: time by which C6 overcame inhibition (rat C6 glioma; 2.7 mg/ml KS/CS-PG, following plating)
